In patent US20240245617A1, “LIPID-BASED TOPICAL INJECTION FORMULATIONS” (Beijing Jitai Pharmaceutical Technology Co., Ltd., priority 2022, published 2024):

What was measured:
C57BL/6 mice = assay: In vivo bioluminescence after intravenous administration of lipid nanoparticles encapsulating luciferase mRNA; conditions: 0.5 mg/kg mRNA, liver
Protocol: The delivery effect and safety of nanoparticles encapsulating luciferase mRNA (Trilink, L-7202) in mice were evaluated. The test mice were SPF-grade C57BL/6 mice, female, 6-8 weeks old, weighing 18-22 g, and were purchased from SPF (Beijing) Biotechnology Co., Ltd. All animals were acclimatized for more than 7 days prior to the experiment, and had free access to food and water during the experiment. The conditions include alternating light and dark for 12/12 h, the indoor temperature of 20-26° C. and the humidity of 40-70%. The mice were randomly grouped. The lipid nanoparticles encapsulating luciferase mRNA prepared above were injected into mice by intravenous administration at a single dose of 0.5 mg/kg mRNA, and the mice were subjected to in vivo bioluminescence assay using a Small Animal In Vivo Imaging System (IVIS LUMINA III, purchased from PerkinElmer) at 6 h after administration. The assay was performed as follows: D-luciferin solution was prepared in saline at a concentration of 15 mg/mL, and each mouse was given the substrate by intraperitoneal injection. At ten minutes after administration of the substrate, the mice were anesthetized in an anesthesia chamber with isoflurane at a concentration of 2.5%. […] Data acquisition and analysis were performed on the liver.
The in vivo delivery efficiency of lipid nanoparticle carriers was expressed as the mean values of fluorescence intensity and total photon count in different animals within the same subject group, as shown in Table 4. Higher values of fluorescence intensity and total photon count indicate higher in vivo delivery efficiency of this mRNA fragment by lipid nanoparticles. The lipid nanoparticles containing the cationic lipids of the present disclosure have good in vivo delivery efficiency and mainly target the liver.

[1] = Encapsulation efficiency of lipid nanoparticles, Quant-it RiboGreen RNA Assay; type: physicochemical; conditions: LNP ionizable lipid/cholesterol/DSPC/DMG-PEG2000 50/38.5/10/1.5 mol%, N/P 6, luciferase mRNA
Protocol: (§1) The particle size and particle size dispersity index (polydispersity index, PDI) of the prepared lipid nanoparticles were measured using a Zetasizer Pro (purchased from Malvern Instruments Ltd) and a DynaPro NanoStar (purchased from Wyatt) dynamic light scattering instrument. The degree of RNA encapsulation by lipid nanoparticles was characterized by the Encapsulation Efficiency %, which reflects the degree of binding of lipid nanoparticles to RNA fragments. This parameter was measured by the method of Quant-it™ RiboGreen RNA Assay (purchased from Invitrogen). Lipid nanoparticle samples were diluted in TE buffer (10 mM Tris-HCl, 1 mM EDTA, pH=7.5). A portion of the sample solution was removed, to which 0.5% Triton (Triton X-100) was added, and then allowed to stand at […] for 30 minutes. Immediately after the addition of RIBOGREEN® reaction solution, the fluorescence values were read on a Varioskan LUX multifunctional microplate reader (purchased from Thermofisher) at 485 nm for absorption and 528 nm for emission to give the encapsulation efficiency values.
The produced lipid nanoparticles were characterized using the same method as in Assay example 2, and the results are shown in Table 6 (the percentage content of each component is represented by molar percentage).

[2] = Particle size and PDI of lipid nanoparticles by dynamic light scattering; type: physicochemical; conditions: LNP ionizable lipid/cholesterol/DSPC/DMG-PEG2000 50/38.5/10/1.5 mol%, N/P 6, luciferase mRNA
Protocol: as §1
The preparation of lipid nanoparticles includes microfluidic mixing system, but is not limited to this method, which also includes T-type mixer and ethanol injection method, etc.

| SMILES | Total photon count in vivo at 6 hours after administration (Total Flux) (C57BL/6 mice) | Encapsulation efficiency (%) [1] [%] | Particle size (nm) [2] [nm] | Particle size dispersity (PDI) [2] |
| --- | --- | --- | --- | --- |
| CCCC/C=C\CCCCOC(=O)C(C)(C)CCCCCC(CCCCCC(C)(C)C(=O)OCCCC/C=C\CCCC)OC(=O)CCCN(C)C [Compound 28] | 3.21E+09 | 80.36 | 138.16 | 0.06 |
| CCCCC(CC#CCOC(=O)C(C)(C)CCCCCC(CCCCCC(C)(C)C(=O)OCC#CCC(CCCC)CCCC)OC(=O)CCCN(C)C)CCCC [Compound 117] | 4.48E+09 |  |  |  |
| CCCCCCCCCOC(=O)C(C)(C)CCCCCC(CCCCCC(C)(C)C(=O)OCC#CC(CCCCCC)CCCCCC)OC(=O)CCCN(C)C (stereo not shown) [Compound 118] | 3.14E+10 |  |  |  |
| CCCCCCCCCSC(=O)C(C)(C)CCCCCC(CCCCCC(C)(C)C(=O)OCC#CC(CCCC)CCCC)OC(=O)CCCN(C)C (stereo not shown) [Compound 119] | 3.25E+10 | 86.92 | 80.98 | 0.05 |
| CCCCCCCCCSC(=O)C(C)(C)CCCCCC(CCCCCC(C)(C)C(=O)OCC#CCC(CCCC)CCCC)OC(=O)CCCN(C)C (stereo not shown) [Compound 121] | >4.00E+10 | 93.62 | 103.57 | 0.06 |
| CCCCCCCCCOC(=O)C(C)(C)CCCCC(CCCCC(C)(C)C(=O)OCC(CCCCC)CCCCCCC)OC(=O)CCCN(C)C (stereo not shown) [Compound 122] | >4.00E+10 |  |  |  |
| CCCCCCCCCCOC(=O)C(C)(C)CCCCC(CCCCC(C)(C)C(=O)OCC(CCCCC)CCCCCCC)OC(=O)CCCN(C)C (stereo not shown) [Compound 123] | >4.00E+10 |  |  |  |
| CCCCCCCCCOC(=O)C(C)(C)CCCCCCC(CCCCCCC(C)(C)C(=O)OCC(CCCCC)CCCCCCC)OC(=O)CCCN(C)C (stereo not shown) [Compound 125] | 1.99E+10 |  |  |  |
| CCCCCCCCCOC(=O)C(C)(C)CCCCCCC(CCCCCCC(C)(C)C(=O)OCC(CCCCC)CCCCCCC)OC(=O)CCCCN(C)C (stereo not shown) [Compound 126] | 1.77E+10 |  |  |  |
| CCCCCCC(CCCCCC)CCOC(=O)CCC(C)(C)CCCC(CCCC(C)(C)CCC(=O)OCCC(CCCCCC)CCCCCC)OC(=O)CCCN(C)C [Compound 128] | 1.00E+10 |  |  |  |
| CCCCCCCC(CCCCCCC)COC(=O)CCC(C)(C)CCCC(CCCC(C)(C)CCC(=O)OCC(CCCCCCC)CCCCCCC)OC(=O)CCCN(C)C [Compound 129] | 7.82E+09 |  |  |  |
| CCCCCCCCCOC(=O)CCCCCCC(CCCCCCC(=O)OCCCCCCCCC)OC(=O)CCCN(C)C [Compound 130] | 4.45E+07 |  |  |  |
| CCCCCCCCCOC(=O)CCCCCCC(CCCCCCC(=O)OCC(CCCCC)CCCCCCC)OC(=O)CCCN(C)C (stereo not shown) [Compound 131] | 1.57E+09 |  |  |  |
